For assay [1], the system named is alternative complement (C3) pathway. Description: Inhibition of C3-activation (IgA-α1 AT complex activation of alternative complement pathway, rabbit RBC lysis). Format: biochemical, human. The following applies: for C' minimum: Table 6, minimum concentration needed to prevent C3 activation. The procedure: Various peptides were tested for their ability to prevent the IgA-α1 AT complex from activating the alternative complement (C3) pathway. […] This method was based on the method described by Riches and Stanworth, Immunology Letters, 1980, 1, 363,366, with modification to miniaturise it thus allowing the assay to be carried out on microtitre plates. The initial observation by […] and Ishizaka (J Immunol. […] The non-immune complex IgA-α1 AT had been shown in the past to be the only known soluble complex to activate the alternative pathway complement and inhibit the lysis of the rabbit erythrocytes. This inhibition required biologically active complex. […] Positive and negative controls, serum only controls and serum plus IgA-α1 AT complex controls were included in the assay. 25 μl of a suitable dilution of IgA-α1 AT complex (see (iii) above) was added to the test wells and the plates were centrifuged at 2000 rpm for 1 minute. The plates were then incubated at 37° C. for 11/2 hours. 50 μl of a suitable serum dilution (see (a) above) was added and the plates centrifuged at 2000 rpm for 10 minute, then incubated at 37° C. for 30 minutes. 50 μl of 1% rabbit RBC was added and after a further 30 minutes of 37° C. incubation, the plates were centrifuged at 2000 rpm for 10 minutes. Supernatants were taken as previously. The mean values of each of the serum(s), serum and complex (c+s) and total haemolysis wells were calculated. The % haemolysis with respect to lysis by serum wells was calculated. The peptide was considered to have titred out when % lysis value was equal to the calculated % lysis value given by the c+s mean. The titre point for the peptide was calculated as the concentration in μM of the peptide that just gave greater lysis than the c+s mean value.

Another assay has as its system IgA-α1 AT complex. Description: HPLC analysis of dissociation of purified IgA-α1 AT complex in vitro. The following applies: for HPLC minimum: Table 6, minimum concentration giving complex: free IgA ratio of 20%, >500 = no dissociation at highest concentration tested; for anti-complex activity (in words): summary statements after Tables 2-6. Format: biochemical, human. The procedure:
The ability of the peptides of the invention to dissociate purified IgA-α1 AT complex in vitro was tested as described below. The anti-rheumatic drug D-penicillamine and other synthetic peptides were used as controls. […] The sample was monitored at wavelength 206 nm at a flow rate of 1 ml/minute with phosphate buffer (0.1M) pH 7.1. They represent the ability of the peptides to dissociate the IgA-α1 AT complex in vitro. In these experiments, the base-lines level comprises a complex: free IgA ratio of 14%. The minimum concentration of peptide taken to produce a positive dissociation effect is that which results in a complex: free IgA ratio at 20%. In the results tables, all the peptide values are expressed in μMoles.

Ends that are not written are not given here. A value given as a limit tells only on which side of the number the result lay.

With `N[C@@H](CS)C(=O)O` [Cysteine], the “C' minimum” value in assay [1] came to 16 µM. The “HPLC minimum” value in the assay with IgA-α1 AT complex is 250 µM.
As for `CC(C)(S)[C@@H](N)C(=O)O` [D-Penicillamine], in assay [1], the “C' minimum” value was determined as 31 µM. Besides, the “HPLC minimum” value in the assay with IgA-α1 AT complex was 250 µM.
In the case of `N[C@@H](CCC(=O)N[C@@H](CS)C(=O)NCC(=O)O)C(=O)O` [Glutathione], the “C' minimum” value in assay [1] stood at 31 µM. In the assay on IgA-α1 AT complex, the “HPLC minimum” value turned out to be 500 µM and the “anti-complex activity (in words)” value is “relatively inactive”.
`CC(=O)N[C@@H](CS)C(=O)O` [N-acetyl Cysteine]: in assay [1], the “C' minimum” value worked out at 4 µM. For the same compound, in the assay with IgA-α1 AT complex, the “HPLC minimum” value turned out to be 500 µM and the “anti-complex activity (in words)” value is “relatively inactive”.
Regarding HGCGGGGnh2 [Peptide 168], the “C'” value in assay [1] (Table 1, minimum concentration of peptide needed to prevent C3 activation) came out at 8 µM. In addition, the “HPLC %” value with IgA-α1 AT complex (Table 1, minimum peptide concentration giving complex: free IgA ratio of 20% (base-line 14%), 90 minutes at 37° C.) amounted to 10 µM.
For the compound “Substance P (RPKPQQFFGLM; ends and bridges not checked; UniProt P20366 58-68, looked up) [control peptide of Group 6]”, in assay [1], the “C' minimum” value is greater than 500 µM. Moreover, the “HPLC minimum” value with IgA-α1 AT complex is greater than 500 µM.

The values are drawn from patent US5837686A, “Peptides and antibodies for treatment of rheumatoid arthritis” (Peptide Therapeutics Limited, priority 1991, dated 1998).
